Measurements: US8852883B2 (priority 2008, dated 2014)
“Also recorded” adds a separate entry of the source. Where two headings read alike, the source gives them in different places. *: point of attachment. FITC = O=C1OC2(c3ccc(O)cc3Oc3cc(O)ccc32)c2ccc(NC(=S)*)cc21; Ahx = NCCCCCC(=O)O

Key:
[1] = system: P. aeruginosa-derived enzyme; assay type: biochemical, Pseudomonas aeruginosa
lysostaphin = molecular target: T1, lysostaphin (Staphylococcus simulans, UniProt P10547); assay type: biochemical
T1 construct: purchased Sigma

[2] = system: currently used micro-organisms; assay type: biochemical
[3] = system: enzymes derived from V. cholerae; assay type: biochemical
[4] = system: enzymes derived from C. botulinum; assay type: biochemical
[5] = system: enzymes derived from B. globigii; assay type: biochemical
[6] = system: B. thuringiensis-derived enzyme; assay type: biochemical
[7] = system: V. cholerae-derived enzyme; assay type: biochemical
[8] = system: enzymes derived from E. herbicola; assay type: biochemical
[9] = system: (virulent) B. anthracis-derived enzyme; assay type: biochemical, Bacillus anthracis
[10] = system: (virulent) B. anthracis-derived enzyme; assay type: biochemical, Bacillus anthracis; remark: listed apart in the source
[11] = system: currently used micro-organisms; assay type: biochemical; remark: listed apart in the source
B. thuringiensis = assay type: biochemical
B. cereus = assay type: biochemical
[12] = system: Collagenase Vibrio/Dispase; assay type: biochemical, Vibrio sp
B. cereus cells = assay type: cell-based; conditions: for Location of fluorescent BikKam1 fragments (fluorescence microscopy): 0.01 M BikKam1
Thermolysin = molecular target: T2, Thermolysin (Bacillus thermoproteolyticus, UniProt P00800); assay type: biochemical
T2 construct: purchased Sigma
T2 sequence (P00800 233-548): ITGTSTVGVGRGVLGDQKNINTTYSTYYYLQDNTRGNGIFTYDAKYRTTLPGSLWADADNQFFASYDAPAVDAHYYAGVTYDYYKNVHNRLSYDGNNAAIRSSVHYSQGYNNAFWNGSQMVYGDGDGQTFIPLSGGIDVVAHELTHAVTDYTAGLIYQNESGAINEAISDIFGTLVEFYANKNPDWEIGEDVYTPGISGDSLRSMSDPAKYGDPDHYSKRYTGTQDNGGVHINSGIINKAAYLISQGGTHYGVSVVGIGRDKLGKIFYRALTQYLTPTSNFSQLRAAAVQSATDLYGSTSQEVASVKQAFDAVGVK

[13] = molecular target: Anthrax Lethal Factor (LF) (Bacillus anthracis, UniProt P15917); assay type: biochemical
Collagenase Clostridium = assay type: biochemical, Clostridium sp.

T1 sequence (P10547 248-493, species assumed): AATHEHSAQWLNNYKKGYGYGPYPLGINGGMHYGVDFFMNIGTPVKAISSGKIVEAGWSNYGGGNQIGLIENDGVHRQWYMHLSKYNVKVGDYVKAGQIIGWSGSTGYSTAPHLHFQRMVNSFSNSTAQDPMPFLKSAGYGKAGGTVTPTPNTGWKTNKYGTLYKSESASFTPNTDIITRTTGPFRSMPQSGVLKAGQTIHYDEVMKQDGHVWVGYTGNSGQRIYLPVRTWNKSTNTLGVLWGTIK
Sequence of Anthrax Lethal Factor (LF) (P15917 34-809 limits assumed): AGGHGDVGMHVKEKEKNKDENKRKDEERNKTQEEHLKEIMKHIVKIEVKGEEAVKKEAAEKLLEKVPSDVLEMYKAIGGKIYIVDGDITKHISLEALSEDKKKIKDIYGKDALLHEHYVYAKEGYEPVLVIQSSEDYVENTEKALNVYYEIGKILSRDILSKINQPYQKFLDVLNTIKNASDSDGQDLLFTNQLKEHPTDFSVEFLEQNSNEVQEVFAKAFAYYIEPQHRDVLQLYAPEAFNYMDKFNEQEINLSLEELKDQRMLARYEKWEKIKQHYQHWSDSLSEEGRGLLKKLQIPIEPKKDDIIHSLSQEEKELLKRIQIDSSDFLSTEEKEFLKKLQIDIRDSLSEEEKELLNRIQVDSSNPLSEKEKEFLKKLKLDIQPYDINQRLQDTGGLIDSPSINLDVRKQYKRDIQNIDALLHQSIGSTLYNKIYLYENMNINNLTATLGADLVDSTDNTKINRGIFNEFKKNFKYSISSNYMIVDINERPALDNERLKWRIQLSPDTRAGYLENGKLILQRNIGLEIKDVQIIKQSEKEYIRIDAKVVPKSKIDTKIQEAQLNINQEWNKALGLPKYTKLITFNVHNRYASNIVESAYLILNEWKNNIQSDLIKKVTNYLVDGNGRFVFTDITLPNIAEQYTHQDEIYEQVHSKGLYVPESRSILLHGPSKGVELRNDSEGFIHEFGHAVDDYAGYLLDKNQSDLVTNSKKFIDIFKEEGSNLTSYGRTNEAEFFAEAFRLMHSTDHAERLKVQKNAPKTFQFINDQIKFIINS

## FITC-Ahx-Gly-Gly-Gly-Gly-DABCYL ({FITC-Ahx}-GGGG-{DABCYL}) [BikKam21]
[1]
  Activity for P. aeruginosa compared to the other BikKam20-24 substrates: slight increase in activity
lysostaphin
  Cleavage of substrate by lysostaphin: specifically cleaved

## FITC-Ahx-Leu-DVal-Lys-DABCYL [BikKam6]
[2]
  Background with bacteria other than (virulent) B. anthracis: hardly revealed any background
[2]; at 60 min
  Background with other bacteria than (virulent) B. anthracis: Some weak background

## FITC-Ahx-Leu-Leu-Lys-DABCYL [BikKam3]
[3]
  Fluorescent signal of FRET: cleavage of substrate by V. cholerae: show activity
[4]
  Fluorescent signal of FRET: cleavage of substrate by C. botulinum: show activity
[5]
  Fluorescent signal of FRET: cleavage of substrate by B. globigii: show activity
[6]
  Fluorescent signal of FRET: cleavage of substrate by B. thuringiensis-derived enzyme: specifically cleaved
[7]
  Fluorescent signal of FRET: cleavage of substrate by V. cholerae-derived enzyme: specifically cleaved
[8]
  Fluorescent signal of FRET: cleavage of substrate by E. herbicola: show activity

## FITC-Ahx-Leu-DLeu-Leu-Lys-DABCYL [BikKam5]
[9]
  Fluorescent signal of FRET: cleavage of substrate by B. anthracis-derived enzyme: specifically cleaved
[3]
  Fluorescent signal of FRET: cleavage of substrate by V. cholerae: Some cleavage
[10]
  Fluorescent signal of FRET: cleavage of substrate by B. anthracis-derived enzyme: specifically cleaved
[6]
  Fluorescent signal of FRET: cleavage of substrate by B. thuringiensis-derived enzyme: Some weak activity

## FITC-Ahx-Gly-DABCYL [BikKam24]
[1]
  Fluorescent signal of FRET: cleavage of substrate by P. aeruginosa-derived enzyme: no P. aeruginosa activity
lysostaphin
  Cleavage of substrate by lysostaphin: No significant enzyme activity
[11]
  Enzyme activity on substrate with the currently used micro-organisms: No significant enzyme activity

## FITC-Ahx-Gly-DLeu-Lys-DABCYL [BikKam7]
[9]
  Fluorescent signal of FRET: cleavage of substrate by B. anthracis-derived enzyme: specifically cleaved
[10]
  Fluorescent signal of FRET: cleavage of substrate by B. anthracis-derived enzyme: specifically cleaved
B. thuringiensis
  Fluorescent signal of FRET: cleavage of substrate by B. thuringiensis: weak signal

## FITC-Ahx-Pro-Hyp-Lys-DABCYL [BikKam9]
[2]
  Enzyme activity on substrate with the currently used micro-organisms: No significant enzyme activity
[11]
  Enzyme activity on substrate with the currently used micro-organisms: No significant enzyme activity

## FITC-Ahx-DLeu-DLeu-Lys-DABCYL [BikKam4]
[9]
  Fluorescent signal of FRET: cleavage of substrate by B. anthracis-derived enzyme: specifically cleaved
[10]
  Fluorescent signal of FRET: cleavage of substrate by B. anthracis-derived enzyme: specifically cleaved
[6]
  Fluorescent signal of FRET: cleavage of substrate by B. thuringiensis-derived enzyme: specifically cleaved

## FITC-Ahx-Gly-Gly-Gly-DABCYL [BikKam22]
[1]
  Activity for P. aeruginosa compared to the other BikKam20-24 substrates: slight increase in activity; also recorded: increase in cleavage
  Fluorescent signal of FRET: cleavage of substrate by P. aeruginosa-derived enzyme: specifically cleaved
lysostaphin
  Cleavage of substrate by lysostaphin: somewhat cleavage

## FITC-Ahx-Gly-Gly-Gly-Gly-Gly-DABCYL [BikKam20]
[1]
  Activity for P. aeruginosa compared to the other BikKam20-24 substrates: increase in cleavage
  Fluorescent signal of FRET: cleavage of substrate by P. aeruginosa-derived enzyme: specifically cleaved
lysostaphin
  Cleavage of substrate by lysostaphin: specifically cleaved

## FITC-Ahx-DLeu-Leu-Lys-DABCYL [BikKam2]
B. cereus
  Fluorescent signal of FRET: cleavage of substrate by B. cereus: weak signal
[9]
  Fluorescent signal of FRET: cleavage of substrate by B. anthracis-derived enzyme: specifically cleaved
[10]
  Fluorescent signal of FRET: cleavage of substrate by B. anthracis-derived enzyme: specifically cleaved
[6]
  Fluorescent signal of FRET: cleavage of substrate by B. thuringiensis-derived enzyme: specifically cleaved
B. thuringiensis
  Fluorescent signal of FRET: cleavage of substrate by B. thuringiensis: weak signal

## FITC-Ahx-Gly-DAla-Lys-DABCYL [BikKam8]
[2]
  Enzyme activity on substrate with the currently used micro-organisms: No significant enzyme activity
[11]
  Enzyme activity on substrate with the currently used micro-organisms: No significant enzyme activity

## FITC-Ahx-Leu-DLeu-Lys-DABCYL [BikKam1]
[9]
  Fluorescent signal of FRET: cleavage of substrate by B. anthracis-derived enzyme: specifically cleaved
[12]
  FRET signal with purified collagenase (Vibrio sp): No signal
[10]
  Fluorescent signal of FRET: cleavage of substrate by B. anthracis-derived enzyme: specifically cleaved
B. cereus cells; 0 hr
  Fluorescent bacteria (fluorescence microscopy): no fluorescent bacteria could be detected
B. cereus cells; B. cereus, 2 hr incubation
  Location of fluorescent BikKam1 fragments (fluorescence microscopy): could be detected in the cytoplasm
B. cereus cells; B. cereus, 4 hr
  Location of fluorescent BikKam1 fragments (fluorescence microscopy): besides in the cytoplasm also present in the cell wall at the new division sides
B. cereus cells; B. cereus, 16 hr incubation
  Location of fluorescent BikKam1 fragments (fluorescence microscopy): moved from the cytoplasm to the side walls
B. cereus cells; B. cereus, time not stated
  Fluorescent BikKam1 fragments in bacteria (fluorescence microscopy): Detection of fluorescent BikKam1 fragments in the cytoplasm
Thermolysin
  FRET signal with purified thermolysin: No signal
[13]
  FRET signal with purified Lethal Factor: No signal
[5]
  Fluorescent signal of FRET: cleavage of substrate by B. globigii: not capable of cleaving
[6]
  Fluorescent signal of FRET: cleavage of substrate by B. thuringiensis-derived enzyme: Some weak activity
Collagenase Clostridium
  FRET signal with purified collagenase (Clostridium sp.): No signal

## FITC-Ahx-Gly-Gly-DABCYL [BikKam23]
[1]
  Activity for P. aeruginosa compared to the other BikKam20-24 substrates: lower than BikKam20-BikKam22; also recorded: significant decrease in activity; also recorded: lower activity
  Fluorescent signal of FRET: cleavage of substrate by P. aeruginosa-derived enzyme: specifically cleaved
lysostaphin
  Cleavage of substrate by lysostaphin: not cleaved; also recorded: does not interact
